From PubChem BioAssay AID212 (DTP/NCI, 2004)
Values joined by “and” are separate entries in the source; they are usually repeats but may differ in a detail not shown here. Equal values may be shown once. Results filed as inconclusive are left out.

System: BDF1 mice, colon carcinoma 38 sc, T/C %
Test: NCI In Vivo Anticancer Drug Screen. Data for tumor model Colon Carcinoma 38 (subcutaneous) in B6D2F1 (BDF1) mice
Settings: endpoint: median tumor weight (est.), higher = larger tumour
Summary of the method: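 Compound antitumor activity was assessed in mice carrying transplantable tumors. Survival or tumor size was recorded, and each value is the treated-group measurement divided by that of the vehicle-treated control group.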

[1] = dose: 25.0 mg/kg/injection, schedule: Q07DX002 (ip), vehicle: Klucel (hydroxypropylcellulose) (HPC)
[2] = dose: 50.0 mg/kg/injection, schedule: Q07DX002 (ip), vehicle: Klucel (hydroxypropylcellulose) (HPC)
[3] = dose: 100.0 mg/kg/injection, schedule: Q07DX002 (ip), vehicle: Klucel (hydroxypropylcellulose) (HPC)
[4] = dose: 200.0 mg/kg/injection, schedule: Q07DX002 (ip), vehicle: Klucel (hydroxypropylcellulose) (HPC)
[5] = dose: 50.0 mg/kg/injection, schedule: Q07DX002 (ip), vehicle: saline with Tween-80
[6] = dose: 100.0 mg/kg/injection, schedule: Q07DX002 (ip), vehicle: saline with Tween-80
[7] = dose: 100.0 mg/kg/injection, schedule: Q07DX002 (ip), vehicle: saline
[8] = dose: 200.0 mg/kg/injection, schedule: Q07DX002 (ip), vehicle: saline with Tween-80
[9] = dose: 200.0 mg/kg/injection, schedule: Q07DX002 (ip), vehicle: saline
[10] = dose: 400.0 mg/kg/injection, schedule: Q07DX002 (ip), vehicle: saline with Tween-80
[11] = dose: 800.0 mg/kg/injection, schedule: Q07DX002 (ip), vehicle: saline
[12] = dose: 1600.0 mg/kg/injection, schedule: Q07DX002 (ip), vehicle: saline
[13] = dose: 400.0 mg/kg/injection, schedule: Q07DX002 (ip), vehicle: Klucel (hydroxypropylcellulose) (HPC)
[14] = dose: 12.5 mg/kg/injection, schedule: Q07DX002 (ip), vehicle: Klucel (hydroxypropylcellulose) (HPC)
[15] = dose: 25.0 mg/kg/injection, schedule: Q07DX002 (ip), vehicle: saline with Tween-80
[16] = dose: 6.25 mg/kg/injection, schedule: Q07DX002 (ip), vehicle: saline with Tween-80
[17] = dose: 12.5 mg/kg/injection, schedule: Q07DX002 (ip), vehicle: saline with Tween-80

For `O=C([CH-]C(=O)C(F)(F)F)c1ccccc1.O=C([CH-]C(=O)C(F)(F)F)c1ccccc1.O=C([CH-]C(=O)C(F)(F)F)c1ccccc1.O=C([CH-]C(=O)C(F)(F)F)c1ccccc1.[Eu+3].c1ccncc1`, the T/C [1] was 91 % of control, the T/C [2] was 88 % of control and the T/C [3] was 76 % of control and 82 % of control. For the same molecule, the T/C [4] was 79 % of control and 88 % of control.

`O=c1[nH]c(=O)n(C2CC(O)C(CO)O2)cc1C(F)(F)F` (stereo unspecified) was tested, and the T/C (dose: 10.0 mg/kg/injection, schedule: Q07DX002 (ip), vehicle: saline) was 83 % of control, the T/C (dose: 20.0 mg/kg/injection, schedule: Q07DX002 (ip), vehicle: saline) was 77 % of control and the T/C [5] was 100 % of control. For the same molecule, the T/C (dose: 50.0 mg/kg/injection, schedule: Q07DX002 (ip), vehicle: saline) was 114 % of control, the T/C [6] was 117 % of control and the T/C [7] was 84 % of control. The T/C (dose: 160.0 mg/kg/injection, schedule: Q07DX002 (ip), vehicle: saline) was 118 % of control, the T/C [8] was 101 % of control and the T/C [9] was 95 % of control. For the same molecule, the T/C (dose: 320.0 mg/kg/injection, schedule: Q07DX002 (ip), vehicle: saline) was 156 % of control, the T/C [10] was 94 % of control and the T/C (dose: 800.0 mg/kg/injection, schedule: Q07DX002 (ip), vehicle: saline with Tween-80) was 105 % of control. The T/C [11] was 90 % of control, the T/C (dose: 1600.0 mg/kg/injection, schedule: Q07DX002 (ip), vehicle: saline with Tween-80) was 108 % of control and the T/C [12] was 41 % of control.

With `CC(C)NCC(O)COc1ccc(O)c(O)c1` (stereo unspecified) the T/C [7] was 121 % of control and the T/C [9] was 93 % of control.

In the case of `CCC(=O)Sc1ccccc1C(=O)Nc1ccc(Cl)cc1`, the T/C [5] is reported as 120 % of control, the T/C [6] is reported as 104 % of control and the T/C [8] is reported as 114 % of control. For the same molecule, the T/C [10] was 59 % of control.

With `Oc1c(Cl)cc(Cl)cc1C1N2CCCCC2C2c3cccn3-c3ccccc3N21` (stereo unspecified) the T/C [1] was 82 % of control, the T/C [2] was 102 % of control and the T/C [3] was 69 % of control. For the same molecule, the T/C [4] was 104 % of control and the T/C [13] was 67 % of control.

For `COc1ccc2[nH]c3c(c2c1)CCNC3CC(C)CCC=C(C)C` (stereo unspecified), the T/C [14] was 88 % of control and 97 % of control, the T/C [1] was 82 % of control and the T/C [2] was 57 % of control.

In the case of `C[C@]12C=CC(=O)C=C1CC[C@@H]1[C@@H]2[C@@H](O)C[C@@]2(C)[C@H]1CC[C@]2(O)C(=O)CO`, the T/C (dose: 40.0 mg/kg/injection, schedule: Q07DX003 (ip), vehicle: Klucel (hydroxypropylcellulose) (HPC)) is reported as 100 % of control, the T/C (dose: 80.0 mg/kg/injection, schedule: Q07DX003 (ip), vehicle: Klucel (hydroxypropylcellulose) (HPC)) is reported as 56 % of control and the T/C (dose: 160.0 mg/kg/injection, schedule: Q07DX003 (ip), vehicle: Klucel (hydroxypropylcellulose) (HPC)) is reported as 58 % of control. For the same molecule, the T/C (dose: 320.0 mg/kg/injection, schedule: Q07DX003 (ip), vehicle: Klucel (hydroxypropylcellulose) (HPC)) was 30 % of control and the T/C (dose: 640.0 mg/kg/injection, schedule: Q07DX003 (ip), vehicle: Klucel (hydroxypropylcellulose) (HPC)) was 24 % of control.

With `O=[N+]([O-])/C=C\c1ccc2c(c1)OCO2` the T/C [14] was 364 % of control, the T/C [1] was 364 % of control and the T/C (dose: 25.0 mg/kg/injection, schedule: Q07DX003 (ip), vehicle: Klucel (hydroxypropylcellulose) (HPC)) was 64 % of control and 71 % of control. The T/C [2] was 185 % of control, the T/C [3] was 93 % of control and the T/C (dose: 100.0 mg/kg/injection, schedule: Q07DX003 (ip), vehicle: Klucel (hydroxypropylcellulose) (HPC)) was 88 % of control and 92 % of control. For the same molecule, the T/C [4] was 77 % of control, the T/C (dose: 200.0 mg/kg/injection, schedule: Q07DX003 (ip), vehicle: Klucel (hydroxypropylcellulose) (HPC)) was 56 % of control and the T/C [13] was 102 % of control.

In the case of `CCC1=C[C@H]2CN(CCc3c([nH]c4ccccc34)[C@@](C(=O)OC)(c3cc4c(cc3OC)N(C)[C@H]3[C@@](O)(C(=O)OC)[C@H](OC(C)=O)[C@]5(CC)C=CCN6CC[C@]43[C@@H]65)C2)C1`, the T/C (dose: 4.0 mg/kg/injection, schedule: Q07DX002 (ip), vehicle: water) is reported as 75 % of control and 82 % of control.

`CCCCCCCCCCCCSC1=C(Cl)C(=O)C(OC)=C(OC)C1=O` was tested, and the T/C [15] was 110 % of control and 97 % of control, the T/C [5] was 91 % of control and 96 % of control and the T/C [8] was 104 % of control.

`C1CCC2[N-]CC3CCCCC3[N-]CC3CCCCC3[N-]CC3CCCCC3[N-]CC2C1.[Cu]` (stereo unspecified) was tested, and the T/C (dose: 1.56 mg/kg/injection, schedule: Q07DX002 (ip), vehicle: Klucel (hydroxypropylcellulose) (HPC)) was 93 % of control, the T/C (dose: 1.56 mg/kg/injection, schedule: Q07DX003 (ip), vehicle: Klucel (hydroxypropylcellulose) (HPC)) was 97 % of control and the T/C (dose: 3.13 mg/kg/injection, schedule: Q07DX002 (ip), vehicle: Klucel (hydroxypropylcellulose) (HPC)) was 81 % of control. The T/C (dose: 6.25 mg/kg/injection, schedule: Q07DX002 (ip), vehicle: Klucel (hydroxypropylcellulose) (HPC)) was 91 % of control, the T/C (dose: 6.25 mg/kg/injection, schedule: Q07DX003 (ip), vehicle: Klucel (hydroxypropylcellulose) (HPC)) was 100 % of control and the T/C [14] was 97 % of control. For the same molecule, the T/C (dose: 12.5 mg/kg/injection, schedule: Q07DX003 (ip), vehicle: Klucel (hydroxypropylcellulose) (HPC)) was 95 % of control.

In the case of `C/C=C/C=C/c1cc2cc3c(c(O)c2c(=O)[nH]1)C1(CC3)C(O)=c2c(=O)c3c(=O)cc(OC)c(=O)c=3c(=O)c2=C1O` (stereo unspecified), the T/C (dose: 0.06 mg/kg/injection, schedule: Q07DX002 (ip), vehicle: DMSO) is reported as 74 % of control and 97 % of control, the T/C (dose: 0.12 mg/kg/injection, schedule: Q07DX002 (ip), vehicle: DMSO) is reported as 115 % of control and 91 % of control and the T/C (dose: 0.15 mg/kg/injection, schedule: Q07DX002 (ip), vehicle: DMSO) is reported as 81 % of control. For the same molecule, the T/C (dose: 0.25 mg/kg/injection, schedule: Q07DX002 (ip), vehicle: DMSO) was 57 % of control, the T/C (dose: 0.3 mg/kg/injection, schedule: Q07DX002 (ip), vehicle: DMSO) was 85 % of control and the T/C (dose: 0.5 mg/kg/injection, schedule: Q07DX002 (ip), vehicle: DMSO) was 79 % of control and 93 % of control. For the same molecule, the T/C (dose: 0.61 mg/kg/injection, schedule: Q07DX002 (ip), vehicle: DMSO) was 87 % of control, the T/C (dose: 1.0 mg/kg/injection, schedule: Q07DX002 (ip), vehicle: DMSO) was 114 % of control and 102 % of control and the T/C (dose: 1.22 mg/kg/injection, schedule: Q07DX002 (ip), vehicle: DMSO) was 81 % of control. The T/C (dose: 2.0 mg/kg/injection, schedule: Q07DX002 (ip), vehicle: DMSO) was 121 % of control.

With `Nc1ccc(S(=O)(=O)c2ccc(N)cc2)cc1` the T/C [16] was 154 % of control, the T/C [17] was 111 % of control and the T/C [5] was 85 % of control and 92 % of control. For the same molecule, the T/C (dose: 56.0 mg/kg/injection, schedule: Q07DX002 (ip), vehicle: saline with Tween-80) was 109 % of control, the T/C (dose: 450.0 mg/kg/injection, schedule: Q07DX002 (ip), vehicle: saline with Tween-80) was 87 % of control and the T/C (dose: 900.0 mg/kg/injection, schedule: Q07DX002 (ip), vehicle: saline with Tween-80) was 71 % of control.

With `CCCCCCCCCCCCCC#CC(=O)O` the T/C [16] was 76 % of control, the T/C [17] was 92 % of control and the T/C [15] was 75 % of control. For the same molecule, the T/C [5] was 84 % of control.

For `CNC=O`, the T/C [9] was 110 % of control, the T/C (dose: 400.0 mg/kg/injection, schedule: Q07DX002 (ip), vehicle: saline) was 150 % of control and the T/C [11] was 55 % of control. The T/C [12] was 75 % of control.

`CCCCCCCCCCS(=O)CC(CO)NC(=O)/C=C/c1c(C)[nH]c(=O)[nH]c1=O` (stereo unspecified) was tested, and the T/C (dose: 1.5 mg/kg/injection, schedule: Q07DX002 (ip), vehicle: distilled water + Tween-80) was 76 % of control and 96 % of control, the T/C (dose: 3.0 mg/kg/injection, schedule: Q07DX002 (ip), vehicle: distilled water + Tween-80) was 109 % of control and 96 % of control and the T/C (dose: 12.0 mg/kg/injection, schedule: Q07DX002 (ip), vehicle: distilled water + Tween-80) was 112 % of control and 115 % of control. The T/C (dose: 48.0 mg/kg/injection, schedule: Q07DX002 (ip), vehicle: distilled water + Tween-80) was 80 % of control.
